Measurements reported in patent publication US8470892B2, “Method of inducing neovascularization” (priority 2010, dated 2013).

Experiments:
complement system [1] = experiment: Dependence of PEG-8 induced CNV on complement: depletion with Cobra Venom Factor; type: in vivo, mice
Experimental: To investigate dependence of PEG-8 induced CNV on complement system activation, the complement system in the mice was depleted by intraperitoneal administration of Cobra Venom Factor. Four groups of animals were used (n=5 mice in each group). Group 1 and 2 were treated intraperitoneal with 4 U of cobra venom factor as described in the inventors' previous publication for 2 days before and every day after subretinal injections. Group 3 and 4 were injected intraperitoneal with vehicle (0.9% Sodium Chloride).
The mice were then injected with subretinal PEG-8 and investigated at day 5 after treatment. […] RPE-choroids of these mice were stained for MAC by IHC and investigated flat mounts using confocal microscopy. Areas of high MAC deposition in animals treated with saline (FIG. 4B) were found but not in CVF treated group (FIG. 4C).

VEGF = VEGF levels by ELISA in posterior part of the eyes after PEG-8; type: in vivo, mice
complement system [2] = experiment: Activation of the complement system by PEG-8 in serum and RPE-choroid; type: in vivo, mice
Experimental: Activation of the complement system by PEG-8 was also studied in the RPE-choroid and in the blood. PEG-8 or saline was injected subretinally and animals were sacrificed at day 1, 3 and 5 after treatment. Total complement activation was studied in the serum. Levels of C3 split products and MAC were investigated in RPE-choroid tissue. […] PEG-8 and saline injected animals at day 3 and 5 had the same levels of total C3 (43 kDa and 23 kDA), but levels of C3 (43 kDa) were higher in PEG-8 treated animals compared to saline injected mice (FIGS. 5C, D).

Male C57BL/6 mice = experiment: CNV induction by subretinal injection of PEG-8 (FITC-dextran perfused RPE-choroid-sclera flat mounts); type: in vivo
Experimental: Male C57BL/6 mice (7-9 weeks old) were anesthetized with Ketamine (80 mg/kg) and Xylazine (20 mg/kg) prior to subretinal injection. One eye was decompressed with 27G needle by inserting the needle through the limbus and sclera. Microinjector UMP3 equipped with Nanofil syringe 100 μL and 33G blunt needle (Word Precision Instruments) was used for injections. The needle was inserted into the incision created by decompression. Movement of the needle was stopped when light resistance was felt by operator. Solutions (single injection of 2 μL) were injected slowly for 5 seconds in the subretinal space. All manipulations were performed under visual control using microscope. Detachment of the retina was visible through the lens. The second eyes of mice were not injected.
To investigate dose dependent effect of PEG-8 (Polyethylene glycol 400) the inventors divided the animals into 7 groups: one control group (n=3 mice) which was not treated at all, group 2 (n=3 mice) received a single subretinal injection of vehicle (2 μL of 0.9% sterile sodium chloride), and five experimental groups which were injected with different doses of PEG-8: 2.0 mg, 1.0 mg, 0.5 mg, 0.25 mg and 0.125 mg. PEG-8 was dissolved in vehicle before injection. Doses of PEG-8 were delivered to the one experimental eye in 2 μL respectively. To determine optimal dose of PEG-8, the inventors performed histological examination and investigation of flat mounted RPE-choroid-sclera complexes after perfusion of animals with FITC-dextran solution at day 14 after injection.
To investigate the time course of CNV after PEG-injection, the animals were injected with 1.0 mg of PEG-8 subretinally and 5 mice from each group were sacrificed at day 1, 3, 5, 7, 14, 21, 28, and 42 post-injection. […] CNV reached maximal size at day 5 and was present until at least day 42.
To evaluate the CNV size, the animals were perfused through their heart with 0.75 ml of phosphate-buffered saline (PBS) containing 50 mg/ml of fluorescein-labeled dextran (FITC-Dextran, 2 million average mw) before they were sacrificed. The eyes were harvested and fixed for 4 hours in 10% phosphate buffered formalin and RPE-choroid-sclera flat mounts were prepared. The RPE-choroid-sclera complexes were mounted in ProLong Antifade reagent with the sclera facing down and were examined under a ZEISS LSM 510 laser confocal microscope.
Confocal microscopy of flat mounted RPE-choroids perfused with FITC-dextran was performed and investigated with semi thin (1 μm) embedded sections at day 5 after injection when CNV was fully developed. […] After PEG-8 injection, CNV was located between two layers of RPE cells in subretinal space (FIGS. 3B, D, F). No vessels originated from retina was found (FIG. 3D). 5 μm paraffin section of control (saline) and PEG-8 injected mice at day 1 were investigated, 3 and 5 after treatment. RPE cells in control groups formed single layer of cells and endothelial cells were found within choroid (FIG. 3G). Starting from day 1 after PEG-8 treatment, zones of affected RPE cell structure were discovered with increased size, irregular shape and presence of space between neighboring RPE cells (FIG. 3H). Isolectin-IB4 positively labeled cells located between affected RPE cells were found at day 1, 3 and 5 after injection (FIGS. 3H-J). Isolectin-IB4 positive had contact with choroidal Isolectin-IB4 positive capillaries and formed vessels in subretinal tissue between existing and newly formed RPE cell layers (FIG. 3J).

[3] = subretinal PEG-8, day 1, 3 and 5

Substance	total complement activity in serum vs saline injected animals (complement system [1]; 4 U CVF intraperitoneal, day 5 after subretinal PEG-8, p<0.05)	reduction of CNV size (area of FITC-dextran perfused vessels) (complement system [1]; CVF intraperitoneal, PEG-8 induced CNV, day 5, p<0.05) [fold]	MAC positive fluorescence in RPE-choroid, saline treated animals compared to CVF injected mice (complement system [1]; IHC flat mounts, day 5, p<0.05)	VEGF in intra- and extracellular fraction of proteins from posterior part of the eyes (VEGF)	MAC levels in RPE-choroid vs saline treated animals (Western blotting) (complement system [2]; all investigated time points (day 1, 3, 5))	C3 split products levels in RPE-choroid vs saline injected mice (complement system [2]; day 1 post-injection only)	levels of C3 (43 kDa) vs saline injected mice (complement system [2]; day 3 and 5)	levels of total C3 (43 kDa and 23 kDA) vs saline (complement system [2]; day 3 and 5)	alternative complement activity in mouse serum (complement system [2]; [3])	total complement activity in mouse serum (complement system [2]; [3])	CNV size and frequency compared between doses (Male C57BL/6 mice; 1.0 mg dose, day 14)	frequency of CNV (Male C57BL/6 mice; 1.0 mg subretinal, day 14 after injection)	CNV present until (Male C57BL/6 mice; 1.0 mg subretinal, time course) [days]	first signs of CNV detected (Male C57BL/6 mice; 1.0 mg subretinal, time course) [days]	time at which CNV reached maximal size (Male C57BL/6 mice; 1.0 mg subretinal, time course) [days]	damage of RPE-choroid after subretinal injection (Male C57BL/6 mice; compared to laser treatment or surgical procedures)	occurrence of CNV (Male C57BL/6 mice; doses 2.0, 1.0, 0.5, 0.25 and 0.125 mg subretinal, day 14)
CVF	significantly reduced	3	significantly higher	–	–	–	–	–	–	–	–	–	–	–	–	–	–
Polyethylene glycol 400 [PEG-8]	–	–	–	increase of VEGF	approximately three fold higher	three-fold increase	higher	same levels	did not affect	did not affect	largest size and frequency	4.4 sites of CNV per eye	≥ 42	3	5	much smaller	CNV in all investigated groups
